The record followed here is BindingDB's records for patent WO2022098809 (Merck Sharp &Amp, 2022).

For the experiment, the target named is Mitogen-activated protein kinase kinase kinase kinase 1 (Homo sapiens, UniProt Q92918). Briefly: HPK1-SLP76 TR-FRET ASSAY. Here is the method: Compounds are serially diluted (3-fold in 100% DMSO) across a 384-well polypropylene source plated from column 3 to column 12 and column 13 to column 22, to yield 10 concentration dose responses for each test compound. Columns 1, 2, 23 and 24 contain either only DMSO or a pharmacological known control inhibitor. […] Enzyme, Substrate and Stop/Detection solutions are prepared in assay buffer. […] Kinase reaction is initiated with addition of 2.5 μL of substrate solution (ATP 10uM and SLP7610 nM Final) and allowed to proceed for 60 minutes. […] Plates are incubated at room temperature for 30 minutes. Reactions are initiated by addition of 2.5 μL of 3x substrate solution (10 nM SLP76 and 10 uM ATP FInal) using BioRaptr. Plates are incubated at room temperature for one hour.
Chain of Mitogen-activated protein kinase kinase kinase kinase 1 (Q92918 whole entry): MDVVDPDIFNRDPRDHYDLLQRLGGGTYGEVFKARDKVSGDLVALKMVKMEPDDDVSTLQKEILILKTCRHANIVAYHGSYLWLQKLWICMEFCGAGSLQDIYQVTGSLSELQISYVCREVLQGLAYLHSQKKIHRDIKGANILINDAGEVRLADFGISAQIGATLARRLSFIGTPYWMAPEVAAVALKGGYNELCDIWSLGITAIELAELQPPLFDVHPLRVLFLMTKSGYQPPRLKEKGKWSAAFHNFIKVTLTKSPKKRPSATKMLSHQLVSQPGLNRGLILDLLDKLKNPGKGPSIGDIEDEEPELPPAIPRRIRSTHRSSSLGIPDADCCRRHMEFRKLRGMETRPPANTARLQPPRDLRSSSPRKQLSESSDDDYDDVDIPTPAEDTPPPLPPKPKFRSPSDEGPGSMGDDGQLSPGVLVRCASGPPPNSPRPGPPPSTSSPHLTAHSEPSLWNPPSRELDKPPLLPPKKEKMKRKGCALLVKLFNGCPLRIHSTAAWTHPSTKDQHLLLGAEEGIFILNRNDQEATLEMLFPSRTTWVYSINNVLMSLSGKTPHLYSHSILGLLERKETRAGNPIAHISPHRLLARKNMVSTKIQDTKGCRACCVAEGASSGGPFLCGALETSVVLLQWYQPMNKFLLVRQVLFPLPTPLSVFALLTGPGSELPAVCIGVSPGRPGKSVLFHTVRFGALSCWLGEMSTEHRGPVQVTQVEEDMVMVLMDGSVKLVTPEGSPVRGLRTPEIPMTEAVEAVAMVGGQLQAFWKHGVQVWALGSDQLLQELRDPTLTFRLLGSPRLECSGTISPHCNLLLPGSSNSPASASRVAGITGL
The compound `Cc1cc(F)c(Nc2nc(Nc3cc4c(cc3F)CCN(C)C4)ncc2C(N)=O)c(C(F)(F)F)c1` [WO2022098809, Example 4-29] yielded an IC50 of 0.2 nM.

The compound `COc1cc2c(cc1Nc1ncc(C(N)=O)c(Nc3c(F)cccc3CC(F)F)n1)CN(C)CC2` [WO2022098809, Example 4-31] displayed an IC50 of 0.2 nM.

The compound `COc1cc2c(cc1Nc1ncc(C(N)=O)c(Nc3ccc(C)cc3C3CC3)n1)CN(C)CC2` [WO2022098809, Example 4-26] displayed an IC50 of 0.17 nM. The IC50 values of the last two compounds are within 1.5-fold of each other.

`Cc1cccc(F)c1Nc1nc(Nc2c(C)nn(C)c2C)ncc1C(N)=O` [WO2022098809, Example 4-35]: the IC50 stood at 158 nM.

`COc1cc2c(cc1Nc1ncc(C(N)=O)c(Nc3ccc(C)cc3C(C)(C)C)n1)CN(C)CC2` [WO2022098809, Example 4-28] showed a half-maximal inhibitory concentration (IC50) of 0.26 nM.

As for `CCc1cc(C)ccc1Nc1nc(Nc2cc3c(cc2OC)CCN(C)C3)ncc1C(N)=O` [WO2022098809, Example 4-27], the midpoint of inhibition, the IC50, lay at 0.08 nM. Against the preceding compound, the IC50 is about 3.2-fold lower.

`CN1CCc2cc(F)c(Nc3ncc(C(N)=O)c(Nc4c(F)ccc5c4OC(C)(C)C5)n3)cc2C1` [WO2022098809, Example 4-32] gave a half-inhibitory concentration (IC50) of 1.13 nM.
